From patent publication US20110206607A1, “IMIDAZOL (1,2-A)PYRIDINES AND RELATED COMPOUNDS WITH ACTIVITY AT CANNABINOID CB2 RECEPTORS” (priority 2007, published 2011)

Biological target: T1, human CB2 (Homo sapiens, UniProt P34972)
T1 construct: expressed in transfected cells; host or cells: HEK-293T (transient transfection, membrane preparation)
Assay: CB2 receptor binding assay, block of [3H]-CP 55,940 binding
Details: membranes of HEK-293T cells transfected with human CB2 cDNA; 1.5 nM [3H]-CP 55,940
Experimental: Membrane preparation—HEK-293T cells were cultured according to ATCC (Manassas, Va.) guidelines and transfected with human CB2 cDNA (SEQ ID NO:1) (Genbank X74328), operably linked to the SV40 promoter, using Polyfect (Qiagen, Valencia, Calif.) or Fugene (Roche, Nutley, N.J.) according to manufacturer's instructions. 48 h after transfection cells were harvested in ice cold membrane buffer (20 mM HEPES, 6 mM MgCl2, 1 mM EDTA, pH 7.2) using a cell scraper. Cells were transferred to a nitrogen cavitation chamber and a pressure of […] was applied for 30 min. The pressure was released and the cell debris was collected and centrifuged at 1000 g at 4° C. for 10 min. The supernatant was collected and the spin was repeated until the supernatant was free of precipitate. Membranes were then pelleted by centrifugation at 12.000 g at 4° C. for 20 min. Membranes were resuspended in an appropriate amount of membrane buffer. The membrane concentration was determined using a BioRad (Hercules, Calif.) protein assay dye reagent according to manufacturer's instructions. Membranes were diluted to 1 mg/ml and aliquots snap-frozen in liquid nitrogen and store at −80° C.
Binding assay—0.5-10 ng of membranes were incubated in binding buffer (50 mM Tris, 0.5 mM EDTA, 0.1% BSA, pH 7.4) in the presence of 1.5 nM radioligand ([^3H]-CP 55,940 Perkin Elmer) and varying concentrations of ligands (total volume 100 μL in a 96 well plate). Membranes were filtered onto a 96 well GF/B filterplate (Packard Bioscience, Shelton, Conn.) and washed with […] wash buffer (25 mM HEPES, 1 mM CaCl2, 5 mM MgCl2, 0.25M NaCl) using a Filtermate 196 Harvester (Packard Instruments, Downers Grove, Ill.). The filter plates were dried under a heat lamp before addition of 50 μL of scintillation fluid to each well (Microscint 20, Packard, Shelton, Conn.). Plates were counted on a Topcount NXT (Packard, Shelton, Conn.).
Data Analysis—Graphs were plotted and KD values were determined by nonlinear regression analysis using Prism software (GraphPad version 4.0, San Diego, Calif., USA).

T1 sequence (P34972 whole entry): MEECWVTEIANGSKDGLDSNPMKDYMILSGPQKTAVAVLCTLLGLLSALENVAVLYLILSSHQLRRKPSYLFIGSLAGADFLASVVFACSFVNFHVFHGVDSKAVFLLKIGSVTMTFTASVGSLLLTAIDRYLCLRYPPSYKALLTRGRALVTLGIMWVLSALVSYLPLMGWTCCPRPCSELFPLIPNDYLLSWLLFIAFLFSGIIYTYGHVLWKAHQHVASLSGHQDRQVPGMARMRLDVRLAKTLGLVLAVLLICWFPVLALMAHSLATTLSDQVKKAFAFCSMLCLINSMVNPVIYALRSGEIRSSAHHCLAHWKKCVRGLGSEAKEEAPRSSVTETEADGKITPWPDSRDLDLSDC

SMILES	pKi	Ki
COc1cc(-c2nc3ccc(Cl)cn3c2Nc2ccc3c(c2)OCCO3)ccc1O [CR-77]	6.7	–
Fc1ncccc1-c1nc2cnccn2c1Nc1ccc2c(c1)OCCO2 [CR-78]	5.4	–
COc1cc(O)ccc1-c1nc2ccccn2c1Nc1ccc2c(c1)OCCO2 [CR-79]	6.7	–
Cc1cn2c(Nc3ccc4c(c3)OCCO4)c(-c3c(F)cccc3Cl)nc2cn1 [CR-80]	6.7	–
COc1cc(-c2nc3ccc(C)cn3c2Nc2ccc3c(c2)OCCO3)ccc1O [CR-81]	6.7	–
Cc1cccc(C)c1-c1nc2cnccn2c1Nc1ccc2c(c1)OCCO2 [CR-82]	6.7	–
Fc1cc(-c2nc3cnccn3c2Nc2ccc3c(c2)OCCO3)ccn1 [CR-83]	5.5	–
Cc1cccc2nc(-c3cccc(F)n3)c(Nc3ccc4c(c3)OCCO4)n12 [CR-84]	6.7	–
COc1cc(O)ccc1-c1nc2ccc(C)cn2c1Nc1ccc2c(c1)OCCO2 [CR-85]	6.7	–
Cc1cccc2nc(-c3c(O)cccc3F)c(Nc3ccc4c(c3)OCCO4)n12 [CR-86]	6.6	–
Cc1ccc2nc(-c3ncccc3F)c(Nc3ccc4c(c3)OCCO4)n2c1 [CR-87]	6.6	–
COc1cc(-c2nc3cccc(C)n3c2Nc2ccc3c(c2)OCCO3)ccc1OCCF [CR-88]	6.6	–
Fc1ccc(-c2nc3cnccn3c2Nc2ccc3c(c2)OCCO3)cn1 [CR-89]	5.5	–
COc1cccc(OC)c1-c1nc2ccncn2c1Nc1ccc2c(c1)OCCO2 [CR-90]	5.6	–
COc1cc(-c2nc3cnccn3c2Nc2ccc3c(c2)OCCO3)cc(F)c1O [CR-91]	6.6	–
Fc1cccc(F)c1-c1nc2cnccn2c1Nc1ccc2c(c1)OCCO2 [CR-92]	6.6	–
COc1cc(-c2nc3ccccn3c2Nc2ccc3c(c2)OCCO3)cc(F)c1O [CR-93]	5.7	–
Clc1cccc(Cl)c1-c1nc2cnccn2c1Nc1ccc2c(c1)OCCO2 [CR-94]	6.6	–
COc1cc(-c2nc3cccc(C)n3c2Nc2ccc3c(c2)OCCO3)cc(F)c1O [CR-95]	6.6	–
COc1cc(-c2nc3ccc(C)cn3c2Nc2ccc3c(c2)OCCO3)cc(F)c1O [CR-96]	6.5	–
COc1cc(-c2nc3cccc(C)n3c2Nc2ccc3c(c2)OCCO3)ccc1O [CR-97]	6.5	–

SMILES	pKi	Ki
COc1cc(-c2nc3ccncn3c2Nc2ccc3c(c2)OCCO3)ccc1O [CR-98]	6.5	–
Cc1ccn2c(Nc3ccc4c(c3)OCCO4)c(-c3cccc(F)n3)nc2c1 [CR-99]	6.5	–
COc1cccc(OC)c1-c1nc2ccc(C)cn2c1Nc1ccc2c(c1)OCCO2 [CR-100]	6.5	–
Cc1cccn2c(Nc3ccc4c(c3)OCCO4)c(-c3ccccn3)nc12 [CR-101]	6.5	–
OCc1ccn2c(Nc3ccc4c(c3)OCCO4)c(-c3c(F)cccc3Cl)nc2c1 [CR-102]	6.4	–
Fc1cccc(Cl)c1-c1nc2cnccn2c1Nc1ccc2c(c1)OCCO2 [CR-103]	6.4	–
COc1ccnc2nc(-c3c(F)cccc3Cl)c(Nc3ccc4c(c3)OCCO4)n12 [CR-104]	6.4	–
COc1cc(O)ccc1-c1nc2c(C)cccn2c1Nc1ccc2c(c1)OCCO2 [CR-105]	6.4	–
Cc1ccn2c(Nc3ccc4c(c3)OCCO4)c(-c3ncccc3F)nc2c1 [CR-106]	5.7	–
COc1cc(O)ccc1-c1nc2cc(C)ccn2c1Nc1ccc2c(c1)OCCO2 [CR-107]	6.4	–
COc1ccnc2nc(-c3c(C)cc(O)cc3C)c(Nc3ccc4c(c3)OCCO4)n12 [CR-108]	6.3	–
COc1cccc2nc(-c3c(F)cccc3Cl)c(NC(=O)Nc3ccc4c(c3)OCCO4)n12 [CR-109]	6.3	–
Fc1ccc(-c2nc3ccccn3c2Nc2ccc3c(c2)OCCO3)cn1 [CR-110]	5.7	–
COc1cc(O)ccc1-c1nc2ncccn2c1Nc1ccc2c(c1)OCCO2 [CR-111]	6.3	–
COc1cccc(F)c1-c1nc2ncccn2c1Nc1ccc2c(c1)OCCO2 [CR-112]	6.3	–
Fc1cccnc1-c1nc2ccccn2c1Nc1ccc2c(c1)OCCO2 [CR-113]	6.3	–
COc1cccc(OC)c1-c1nc2cccc(C)n2c1Nc1ccc2c(c1)OCCO2 [CR-114]	6.3	–
c1ccc(-c2nc3ncccn3c2Nc2ccc3c(c2)OCCO3)nc1 [CR-115]	6.2	–
COc1cccc(OC)c1-c1nc2ccccn2c1Nc1ccc2c(c1)OCCO2 [CR-116]	6.2	–
COc1cccc2nc(-c3c(F)cccc3Cl)c(NC(=O)c3ccc4c(c3)OCCO4)n12 [CR-117]	5.7	–

More lines, now with the values ahead:

pKi	Ki	SMILES
5.8	–	COc1cccc(OC)c1-c1nc2cnccn2c1Nc1ccc2c(c1)OCCO2 [CR-118]
5.9	–	Cc1ccn2c(Nc3ccc4c(c3)OCCO4)c(-c3ccccn3)nc2c1 [CR-119]
5.9	–	COc1cc(O)ccc1-c1nc2ccncn2c1Nc1ccc2c(c1)OCCO2 [CR-120]
6.0	–	COc1cccc(OC)c1-c1nc2ncccn2c1Nc1ccc2c(c1)OCCO2 [CR-121]
6.0	–	Fc1cccc(Cl)c1-c1nc2cccc(C(F)(F)F)n2c1Nc1ccc2c(c1)OCCO2 [CR-122]
6.0	–	COc1cccc(OC)c1-c1nc2c(C)cccn2c1Nc1ccc2c(c1)OCCO2 [CR-123]
6.0	–	Cc1cccc2nc(-c3c(F)cccc3Cl)c(N(C)c3ccc4c(c3)OCCO4)n12 [CR-124]
5.9	–	COc1cccc(F)c1-c1nc2cnccn2c1Nc1ccc2c(c1)OCCO2 [CR-125]
5.9	–	COc1cccc(OC)c1-c1nc2cc(C)ccn2c1Nc1ccc2c(c1)OCCO2 [CR-126]
7.3	–	Cc1cccc2nc(-c3c(F)cccc3Cl)c(Nc3ccc4c(c3)OCO4)n12 [CR-127]
6.7	–	Fc1cccc(Cl)c1-c1nc2ccccn2c1Nc1ccc2c(c1)OCO2 [CR-128]
6.4	–	Cc1cccn2c(Nc3ccc4c(c3)OCO4)c(-c3c(F)cccc3Cl)nc12 [CR-129]
6.1	–	COc1cc(-c2nc3cc(C)ccn3c2Nc2ccc3c(c2)OCO3)cc(F)c1O [CR-130]
–	5.01 nM	COc1cccc2nc(-c3c(C)cc(OCC[18F])cc3C)c(Nc3ccc4c(c3)OCCO4)n12 [CR-132]
–	1.58 nM	COc1cccc2nc(-c3c(F)ccc(OCC[18F])c3F)c(Nc3ccc4c(c3)OCCO4)n12 [CR-133]
–	1 nM	COc1cccc2nc(-c3c(F)ccc(OC[18F])c3Cl)c(Nc3ccc4c(c3)OCCO4)n12 [CR-134]
–	39.8 nM	Fc1cncc(F)c1-c1nc2cccc(OCC[18F])n2c1Nc1ccc2c(c1)OCCO2 [CR-135]
9.5	–	COc1cccc2nc(-c3c(C)cc(OC[18F])cc3C)c(Nc3ccc4c(c3)OCCO4)n12 [CR-136]
6.5	–	COc1cnc2nc(-c3c(F)cncc3F)c(Nc3ccc4c(c3)OCCO4)n2c1 [CR-137]
8.3	–	COc1cccc2nc(-c3c(F)cc(O)cc3Cl)c(Nc3ccc4c(c3)OCCO4)n12 [CR-138]
8.2	–	COc1cccc2nc(-c3c(C)cncc3C)c(Nc3ccc4c(c3)OCCO4)n12 [CR-139]
